# From US12121498B2 (priority 2018, dated 2024)
# Experiments:
# [1] = molecular target: GABAA, Chloride Channel, TBPS; experiment: Radioligand ([35S]TBPS)-receptor competitive binding assay for GABAA receptor; parameters: species or system Rat; details: for IC50: [35S]TBPS, test concentration 30, 10, 3, 1, 0.3 uM; for Affinity for the GABAA receptor: result in words, compared with dipropofol
# in vivo = type: in vivo, SD rats; details: rats; for concentration at 5 min / concentration at 15 min / concentration at 30 min / concentration at 1 h / concentration at 2 h / concentration at 4 h: SD, rat, in vivo, iv, average, read-out: Drug concentrations in brain tissue; for concentration at 5 min: 5 min after administration; for concentration at 15 min: 15 min after administration; for concentration at 30 min: 30 min after administration; for concentration at 1 h: 1 h after administration; for concentration at 2 h: 2 h after administration; for concentration at 4 h: 4 h after administration
# Method: 1. Comparative Assay for the Distribution of Compound XA-1-7 and Dipropofol (3,3′,5,5′-Tetraisopropyl Biphenyl-4,4′-Diol) in the Brain Tissue of Rats after Intravenous Administration
# 72 SD rats, each weighing 200 to 220 g, were randomly divided into 12 groups (6 per group at a time), and fasted for 12 hours before administration. Compound XA-1-7 or dipropofol was injected intravenously at a dose of 45 mg/kg, and the rats were sacrificed at 5 min, 15 min, 30 min, 1 h, 2 h, and 4 h after administration, immediately after which the brain tissue was removed, rinsed with ice-cold distilled water, blotted up, and cryopreserved at −40° C. The concentrations of Compound XA-1-7 or dipropofol in the brain tissue of rats at different time points after administration were measured by LC-MS/MS.
Structure (SMILES),IC50 [1] [nM],Affinity for the GABAA receptor [1],concentration at 5 min (in vivo; i.v. 45 mg/kg) [ng/g],concentration at 15 min (in vivo; i.v. 45 mg/kg) [ng/g],concentration at 30 min (in vivo; i.v. 45 mg/kg) [ng/g],concentration at 1 h (in vivo; i.v. 45 mg/kg) [ng/g],concentration at 2 h (in vivo; i.v. 45 mg/kg) [ng/g],concentration at 4 h (in vivo; i.v. 45 mg/kg) [ng/g],Peak time of the concentration in the brain tissue (in vivo; i.v. 45 mg/kg) [min],"Concentration in the brain tissue relative to that of the dipropofol (in vivo; 5 minutes after intravenous injection, 45 mg/kg)",AUC0-4 h in the brain tissue relative to that of the dipropofol (in vivo; i.v. 45 mg/kg),"Delivering speed into the brain and level in the brain compared with dipropofol (in vivo; intravenous administration at the same dosage, result in words)"
"CCCc1cc(-c2cc(CCC)c(O)c(C(C)C)c2)cc(CCC)c1O [Compound 3, 3-isopropyl-3′,5,5′-tripropyl-biphenyl-4,4′-diol]",2690,high affinity,,,,,,,,,,
"CC(C)c1cc(-c2cc(C(C)C)c(O)c(C(C)C)c2)cc(C(C)C)c1O [Dipropofol, 3,3′,5,5′-tetraisopropylbiphenyl-4,4′-diol, reference compound]",2060,,12800,24100,32500,26600,17900,5520,30,,,
"CCCc1cc(-c2cc(C(C)C)c(O)c(C(C)C)c2)cc(C(C)C)c1O [Compound 2, 3,3′,5-triisopropyl-5′-propyl-biphenyl-4,4′-diol]",2110,high affinity,,,,,,,,,,
"CCCc1cc(-c2cc(C(C)C)c(O)c(C(C)C)c2)cc(CCC)c1O [Compound 1, 3,5-diisopropyl-3′,5′-dipropyl-[1,1′-biphenyl]-4,4′-diol]",1820,high affinity,37600,39600,38100,33900,24600,6870,15,about 3 times,about 1.36 times,significantly higher
